Results: article PMC3996911 (Molecular cell, 2014)

Tests used:
PPX = biological target: T1, PPX (Escherichia coli, UniProt P0AFL6); experiment: specific activity after incubation with N-chlorotaurine; format: biochemical; conditions: covalent (oxidation of Cys169 and, to a lesser extent, Cys85)
T1 sequence (P0AFL6 2-513): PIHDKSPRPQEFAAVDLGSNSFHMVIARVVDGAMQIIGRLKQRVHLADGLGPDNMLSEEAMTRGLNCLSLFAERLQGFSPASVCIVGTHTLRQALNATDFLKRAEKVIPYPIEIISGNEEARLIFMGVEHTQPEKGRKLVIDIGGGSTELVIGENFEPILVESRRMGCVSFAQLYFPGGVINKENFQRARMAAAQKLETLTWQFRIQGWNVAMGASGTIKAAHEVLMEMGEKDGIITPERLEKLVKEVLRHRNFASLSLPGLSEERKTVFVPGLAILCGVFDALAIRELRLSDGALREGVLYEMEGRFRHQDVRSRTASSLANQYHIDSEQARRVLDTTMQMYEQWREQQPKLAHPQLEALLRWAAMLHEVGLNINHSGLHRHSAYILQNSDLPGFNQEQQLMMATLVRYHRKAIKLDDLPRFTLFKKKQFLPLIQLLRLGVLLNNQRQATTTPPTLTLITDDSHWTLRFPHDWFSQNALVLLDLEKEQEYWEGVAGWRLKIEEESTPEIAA

PPK = PPK (Escherichia coli, UniProt P0A7B1)
Sequence of PPK (P0A7B1 2-688): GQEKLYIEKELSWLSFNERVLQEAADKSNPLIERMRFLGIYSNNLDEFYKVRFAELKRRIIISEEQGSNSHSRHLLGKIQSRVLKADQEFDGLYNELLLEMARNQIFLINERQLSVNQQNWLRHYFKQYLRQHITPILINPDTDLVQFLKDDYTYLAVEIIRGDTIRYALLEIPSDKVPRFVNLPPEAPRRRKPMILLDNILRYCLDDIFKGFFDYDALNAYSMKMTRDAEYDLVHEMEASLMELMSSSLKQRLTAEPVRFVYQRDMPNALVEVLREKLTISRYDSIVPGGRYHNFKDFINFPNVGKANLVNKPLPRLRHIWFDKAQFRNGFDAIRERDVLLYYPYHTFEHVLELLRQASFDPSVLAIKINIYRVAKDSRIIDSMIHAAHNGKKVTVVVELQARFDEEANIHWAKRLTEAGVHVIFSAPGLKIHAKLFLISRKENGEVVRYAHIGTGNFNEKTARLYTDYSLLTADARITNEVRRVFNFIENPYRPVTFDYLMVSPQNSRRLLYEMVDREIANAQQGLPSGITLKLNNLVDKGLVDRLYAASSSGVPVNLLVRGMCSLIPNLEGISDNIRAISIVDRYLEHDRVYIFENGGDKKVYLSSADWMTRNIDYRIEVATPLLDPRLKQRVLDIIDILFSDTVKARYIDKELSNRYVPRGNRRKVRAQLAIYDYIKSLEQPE

SMILES | specific activity after incubation with N-chlorotaurine (PPX) | specific activity, forward reaction (polyP synthesis) (PPK)
O=S(=O)(O)CCNCl [N-chlorotaurine] | Purified PPX proved to be highly sensitive to inactivation by N-chlorotaurine | 
Nc1ncnc2c1ncn2[C@@H]1O[C@H](COP(=O)(O)OP(=O)(O)OP(=O)(O)O)[C@@H](O)[C@H]1O [ATP] |  | Specific activity of PPK’s forward and reverse reactions (see Figure 1C)
